# Laboratory results published in patent US20070172957A1, “Methods of identifying anti-inflammatory macrolides” (TAISHO PHARMACEUTICAL CO., LTD., priority 2004, published 2007).
# Test system: A549 cells
# Test: A549 microarray comparing macrolides with arachidonic acid pathway inhibitors, with IL-1β stimulation (Appendix C, Tables 6-9), and correlation analysis
# Type: cell-based
# Excerpt: One inhibitor, triacsin C, acts on AA biosynthesis by inhibiting arachidonyl CoA synthetases, blocking the incorporation of free AA into phospholipids. Triacsin C is reasonably specific for AA compared to other fatty acids. However, triacsin C structurally resembles AA so it also may interfere with other steps in the AA pathway. Indomethacin is an inhibitor of COX1 and COX2 enzyme activities and therefore specifically blocks metabolism of AA into prostaglandins. […] It inhibits transcription of PLA2, and transcriptionally and post-transcriptionally regulates COX1 and COX2 activities. Dexamethasone has additional effects unrelated to AA through binding with the glucocorticoid receptor to glucocortcoid response elements.
# A549 cells were pre-incubated overnight (17 hours) with macrolides (10 μM FMA-9045, 50 μM clarithromycin, 50 μM roxithromycin, 50 μM josamycin) and 15 μM triacsin C, and pre-incubated 2 hours with 100 nM indomethacin and 100 nM dexamethasone. All cells then were stimulated for 4 hours with IL-1β, because the activation of PLA2 and downstream signaling events generally requires an inflammatory stimulus. The various treatment conditions are shown below in Table 4. Following macrolide and inhibitor pre-treatment and IL-1 stimulation, the cells were lysed, total RNA was collected, and the poly-A+ mRNA fraction was purified. The resulting microarray data (Appendix C) were analyzed using the methods described in the Examples above.
# The tables in Appendix C represent the effects of the arachidonic acid pathway inhibitors (“AA pathway inhibitors”) and the effects of the macrolides (“IL1+macrolide effects”). […] In both tables in Appendix C, the genes that meet this criterion (≧1.3 min fold change) are indicated in bold.
# Quantitative analysis was done to determine how well the responses to the different AA pathway inhibitors correlated. The correlation values were assigned a p-value to provide statistical confidence to the correlation value. Correlation between experiments, across all spots showing good detection, was assessed by cosine vector angle to generate the data shown in Tables 7-9. A correlation coefficient close to one indicates strong correlation, whereas a value near zero indicates no correlation. P-values for each correlation coefficient were estimated based on a Fisher permutation test. In this test, each spot's expression ratios were randomly re-ordered across experiments and the degree of correlation between experiments was then reassessed. This was done repeatedly.
# [1] = A549 cells, +IL1b +/- inhibitor
structure (smiles),measurement,setting,value
COc1ccc2c(c1)c(CC(=O)O)c(C)n2C(=O)c1ccc(Cl)cc1 [indomethacin],Number of differentially expressed genes also differential in response to triacsin C,"A549 + IL-1β, of the genes regulated by the labelled drug",36
same,Total # Differential Genes (95% confidence),"A549, IL1 vs IL1 + drug, threshold 1.3, macrolides 50 μM (FMA 10 μM), triacsin C 15 μM, indomethacin and dexamethasone 100 nM",37
same,"min fold change, SpotID 46796 STC1 (stanniocalcin 1)",[1],1.34
same,"min fold change, SpotID 46950 SERPINA3 (serine (or cysteine) proteinase inhibitor, clade A, member 3)",[1],1.28
same,"min fold change, SpotID 46985 RIPK2 (RIP2, RICK; receptor-interacting serine-threonine kinase 2)",[1],1.85
same,"min fold change, SpotID 47155 TNFAIP6 (tumor necrosis factor, alpha-induced protein 6)",[1],1.17
same,"min fold change, SpotID 47166 SERPINA6 (serine (or cysteine) proteinase inhibitor, clade A, member 6)",[1],1.05
same,"min fold change, SpotID 47193 STAT3 (signal transducer and activator of transcription 3)",[1],1.25
same,"min fold change, SpotID 47332 SERPINB3 (serine (or cysteine) proteinase inhibitor, clade B (ovalbumin), member 3)",[1],1.25
same,"min fold change, SpotID 47444 TKT (transketolase (Wernicke-Korsakoff syndrome))",[1],1.00
same,"min fold change, SpotID 47569 STAT3 (signal transducer and activator of transcription 3)",[1],1.69
same,"min fold change, SpotID 47697 TNFRSF6B (DcR3; tumor necrosis factor receptor superfamily, member 6b, decoy)",[1],1.52
same,"min fold change, SpotID 47698 PTPRJ (protein tyrosine phosphatase, receptor type, J)",[1],1.31
same,"min fold change, SpotID 47987 THBS1 (thrombospondin 1)",[1],1.32
same,"min fold change, SpotID 48050 RPS6KA2 (ribosomal protein S6 kinase, 90 kD, polypeptide 2)",[1],1.00
same,"min fold change, SpotID 48234 PTPRZ1 (PTP zeta; protein tyrosine phosphatase, receptor-type, Z polypeptide 1)",[1],1.48
same,"min fold change, SpotID 48239 TLN1 (talin 1)",[1],1.51
same,"min fold change, SpotID 48288 TRAF5 (TNF receptor-associated factor 5)",[1],1.40
same,"min fold change, SpotID 48359 RIPK1 (receptor (TNFRSF)-interacting serine-threonine kinase 1)",[1],1.00
same,"min fold change, SpotID 48392 RIPK1 (receptor (TNFRSF)-interacting serine-threonine kinase 1)",[1],1.00
same,"min fold change, SpotID 48395 TNFRSF7 (CD27; tumor necrosis factor receptor superfamily, member 7)",[1],1.55
same,"min fold change, SpotID 48485 UCP1 (uncoupling protein 1 (mitochondrial, proton carrier))",[1],1.32
same,"min fold change, SpotID 48500 RPL13A (ribosomal protein L13a)",[1],1.06
same,"min fold change, SpotID 48594 RPS6KA2 (ribosomal protein S6 kinase, 90 kD, polypeptide 2)",[1],1.03
same,"min fold change, SpotID 48603 TEAD4 (TEA domain family member 4)",[1],1.72
same,"min fold change, SpotID 49330 TNFRSF7 (CD27; tumor necrosis factor receptor superfamily, member 7)",[1],1.44
same,"min fold change, SpotID 49899 WWOX (WW domain containing oxidoreductase)",[1],1.00
same,"min fold change, SpotID 49901 TROAP (trophinin associated protein (tastin))",[1],1.01
same,"min fold change, SpotID 50379 TNFRSF6 (FAS; tumor necrosis factor receptor superfamily, member 6)",[1],1.38
same,"min fold change, SpotID 50428 RPLP0 (ribosomal protein, large, P0)",[1],1.00
same,"min fold change, SpotID 50491 TNFRSF6B (DcR3; tumor necrosis factor receptor superfamily, member 6b, decoy)",[1],1.17
same,"wtd means, SpotID 46796 STC1 (stanniocalcin 1)",[1],1.47
same,"wtd means, SpotID 46950 SERPINA3 (serine (or cysteine) proteinase inhibitor, clade A, member 3)",[1],1.41
same,"wtd means, SpotID 46985 RIPK2 (RIP2, RICK; receptor-interacting serine-threonine kinase 2)",[1],2.23
same,"wtd means, SpotID 47155 TNFAIP6 (tumor necrosis factor, alpha-induced protein 6)",[1],1.23
same,"wtd means, SpotID 47166 SERPINA6 (serine (or cysteine) proteinase inhibitor, clade A, member 6)",[1],1.66
same,"wtd means, SpotID 47193 STAT3 (signal transducer and activator of transcription 3)",[1],1.64
same,"wtd means, SpotID 47332 SERPINB3 (serine (or cysteine) proteinase inhibitor, clade B (ovalbumin), member 3)",[1],1.33
same,"wtd means, SpotID 47444 TKT (transketolase (Wernicke-Korsakoff syndrome))",[1],0.82
same,"wtd means, SpotID 47569 STAT3 (signal transducer and activator of transcription 3)",[1],2.00
same,"wtd means, SpotID 47697 TNFRSF6B (DcR3; tumor necrosis factor receptor superfamily, member 6b, decoy)",[1],1.84
same,"wtd means, SpotID 47698 PTPRJ (protein tyrosine phosphatase, receptor type, J)",[1],1.38
same,"wtd means, SpotID 47987 THBS1 (thrombospondin 1)",[1],0.68
same,"wtd means, SpotID 48234 PTPRZ1 (PTP zeta; protein tyrosine phosphatase, receptor-type, Z polypeptide 1)",[1],1.77
same,"wtd means, SpotID 48239 TLN1 (talin 1)",[1],1.57
same,"wtd means, SpotID 48288 TRAF5 (TNF receptor-associated factor 5)",[1],1.96
same,"wtd means, SpotID 48359 RIPK1 (receptor (TNFRSF)-interacting serine-threonine kinase 1)",[1],1.34
same,"wtd means, SpotID 48392 RIPK1 (receptor (TNFRSF)-interacting serine-threonine kinase 1)",[1],1.35
same,"wtd means, SpotID 48395 TNFRSF7 (CD27; tumor necrosis factor receptor superfamily, member 7)",[1],1.76
same,"wtd means, SpotID 48485 UCP1 (uncoupling protein 1 (mitochondrial, proton carrier))",[1],1.70
same,"wtd means, SpotID 48500 RPL13A (ribosomal protein L13a)",[1],1.23
same,"wtd means, SpotID 48603 TEAD4 (TEA domain family member 4)",[1],2.19
same,"wtd means, SpotID 49330 TNFRSF7 (CD27; tumor necrosis factor receptor superfamily, member 7)",[1],1.90
same,"wtd means, SpotID 49899 WWOX (WW domain containing oxidoreductase)",[1],1.07
same,"wtd means, SpotID 49901 TROAP (trophinin associated protein (tastin))",[1],0.93
same,"wtd means, SpotID 50379 TNFRSF6 (FAS; tumor necrosis factor receptor superfamily, member 6)",[1],1.57
same,"wtd means, SpotID 50428 RPLP0 (ribosomal protein, large, P0)",[1],0.77
same,"wtd means, SpotID 50491 TNFRSF6B (DcR3; tumor necrosis factor receptor superfamily, member 6b, decoy)",[1],1.60
same,FADS1 expression,"A549 cells, microarray",not
